According to patent US20080242683A1, “Organic Compounds” (priority 2005, published 2008):
Counter-ions that a name gives are not always drawn.

Molecular target: adenosine A2A receptor (Homo sapiens, UniProt P29274)
Test: adenosine A2A receptor agonist assay (method of Murphree et al.)
Type: binding
Conditions: Mol Pharmacol 61, 455-462 (2002)
Description: Compounds of formula (I) and their pharmaceutically acceptable salts are useful as pharmaceuticals. In particular, they activate the adenosine A2A receptor, i.e., they act as A2A receptor agonists.

Sequence of adenosine A2A receptor (P29274 whole entry): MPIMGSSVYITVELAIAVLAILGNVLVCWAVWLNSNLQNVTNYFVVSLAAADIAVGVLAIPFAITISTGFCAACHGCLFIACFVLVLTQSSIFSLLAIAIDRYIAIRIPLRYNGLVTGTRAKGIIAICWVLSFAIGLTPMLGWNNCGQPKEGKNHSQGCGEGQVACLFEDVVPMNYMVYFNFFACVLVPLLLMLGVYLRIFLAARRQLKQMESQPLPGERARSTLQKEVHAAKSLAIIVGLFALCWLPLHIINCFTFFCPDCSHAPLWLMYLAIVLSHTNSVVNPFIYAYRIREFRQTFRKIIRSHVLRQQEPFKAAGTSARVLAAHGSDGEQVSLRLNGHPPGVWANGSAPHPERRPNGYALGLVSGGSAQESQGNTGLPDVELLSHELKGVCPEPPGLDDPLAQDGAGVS

Row | SMILES | Ki
1 | OC[C@H]1O[C@@H](n2cnc3c(NCC(c4ccccc4)c4ccccc4)nc(N4CC[C@@H](O)C4)nc32)[C@H](O)[C@@H]1O [Example 13, (2R,3R,4S,5R)-2-[6-(2,2-diphenyl-ethylamino)-2-((R)-3-hydroxy-pyrrolidin-1-yl)-purin-9-yl]-5-hydroxymethyl-tetrahydro-furan-3,4-diol] | 54 nM
2 | N[C@@H]1CCN(c2nc(NCC(c3ccccc3)c3ccccc3)c3ncn([C@@H]4O[C@H](CO)[C@@H](O)[C@H]4O)c3n2)C1 [Example 7, (2R,3R,4S,5R)-2-[2-((R)-3-Amino-pyrrolidin-1-yl)-6-(2,2-diphenyl-ethylamino)-purin-9-yl]-5-hydroxymethyl-tetrahydro-furan-3,4-diol trifluoroacetate] | 190 nM
3 | OC[C@H]1O[C@@H](n2cnc3c(NCC(c4ccccc4)c4ccccc4)nc(N4CC[C@H](c5ccc(F)cc5)C4)nc32)[C@H](O)[C@@H]1O [Example 2, (2R,3R,4S,5R)-2-{6-(2,2-diphenyl-ethylamino)-2-[(R)-3-(4-fluoro-phenyl)-pyrrolidin-1-yl]-purin-9-yl}-5-hydroxymethyl-tetrahydro-furan-3,4-diol trifluoroacetate] | 610 nM
4 | O=C(NC1CCN(c2ccccn2)CC1)N[C@@H]1CCN(c2nc(NCC(c3ccccc3)c3ccccc3)c3ncn([C@@H]4O[C@H](CO)[C@@H](O)[C@H]4O)c3n2)C1 [Example 9, 1-{(R)-1-[9-((2R,3R,4S,5R)-3,4-Dihydroxy-5-hydroxymethyl-tetrahydro-furan-2-yl)-6-(2,2-diphenyl-ethylamino)-9H-purin-2-yl]-pyrrolidin-3-yl}-3-(3,4,5,6-tetrahydro-2H-[1,2′]bipyridinyl-4-yl)-urea trifluoroacetate] | 160 nM
5 | CN(C)[C@@H]1CCN(c2nc(NCC(c3ccccc3)c3ccccc3)c3ncn([C@@H]4O[C@H](CO)[C@@H](O)[C@H]4O)c3n2)C1 [Example 22, (2R,3R,4S,5R)-2-[2-((R)-3-dimethylamino-pyrrolidin-1-yl)-6-(2,2-diphenyl-ethylamino)-purin-9-yl]-5-hydroxymethyl-tetrahydro-furan-3,4-diol trifluoroacetate] | 0.5 nM
6 | O=C(N[C@@H]1CCNC1)N[C@@H]1CCN(c2nc(NCC(c3ccccc3)c3ccccc3)c3ncn([C@@H]4O[C@H](CO)[C@@H](O)[C@H]4O)c3n2)C1 [Example 11, 1-{(R)-1-[9-((2R,3R,4S,5R)-3,4-Dihydroxy-5-hydroxymethyl-tetrahydro-furan-2-yl)-6-(2,2-diphenyl-ethylamino)-9H-purin-2-yl]-pyrrolidin-3-yl}-3-(R)-pyrrolidin-3-yl-urea trifluoroacetate] | 12 nM

The next lines start with the values.

Row | Ki | SMILES
7 | 4 nM | CCn1nnc([C@H]2O[C@@H](n3cnc4c(NCC(c5ccccc5)c5ccccc5)nc(N5CC[C@@H](NC(=NCc6ccccn6)NC#N)C5)nc43)[C@H](O)[C@@H]2O)n1 [Example 122, N—((R)-1-{6-(2,2-Diphenyl-ethylamino)-9-[(2R,3R,4S,5R)-5-(2-ethyl-2H-tetrazol-5-yl)-3,4-dihydroxy-tetrahydro-furan-2-yl]-9H-purin-2-yl}-pyrrolidin-3-yl)-N′-cyano-N″-pyridin-2-ylmethyl-guanidine]
8 | 6 nM | CCn1nnc(C2OC(n3cnc4c(NCC(c5ccc(O)cc5)c5ccc(O)cc5)nc(N5CCC(NC(=O)c6ccc(N7CCOCC7)nc6)C5)nc43)C(O)C2O)n1 [Example 77, N—((R)-1-{6-[2,2-bis-(4-Hydroxy-phenyl)-ethylamino]-g-[(2R,3R,4S,5R)-5-(2-ethyl-2H-tetrazol-5-yl)-3,4-dihydroxy-tetrahydro-furan-2-yl]-9H-purin-2-yl}-pyrrolidin-3-yl)-6-morpholin-4-yl-nicotinamide trifluoroacetate]
9 | 59 nM | O=C(N[C@@H]1CCN(C(=O)NC2CCN(C(=O)OCc3ccccc3)CC2)C1)N[C@@H]1CCN(c2nc(NCC(c3ccccc3)c3ccccc3)c3ncn([C@@H]4O[C@H](CO)[C@@H](O)[C@H]4O)c3n2)C1 [Example 24, 4-{[(R)-3-(3-{(R)-1-[9-((2R,3R,4S,5R)-3,4-Dihydroxy-5-hydroxymethyl-tetrahydro-furan-2-yl)-6-(2,2-diphenyl-ethylamino)-9H-purin-2-yl]-pyrrolidine-3-yl}-ureido)-pyrrolidine-1-carbonyl]-amino}-piperidine-1-carboxylic acid benzyl ester trifluoroacetate]
10 | 2 nM | CCc1cc([C@H]2O[C@@H](n3cnc4c(N[C@H](CO)Cc5ccccc5)nc(N5CC[C@@H](N6CCCC6)C5)nc43)[C@H](O)[C@@H]2O)on1 [Example 65, (2R,3R,4S,5S)-2-[(R)-2-[1,3′]Bipyrrolidinyl-1′-yl-6-((S)-1-hydroxymethyl-2-phenyl-ethylamino)-purin-9-yl]-5-(3-ethyl-isoxazol-5-yl)-tetrahydro-furan-3,4-diol]
11 | 5 nM | CCn1nnc([C@H]2O[C@@H](n3cnc4c(NCCc5ccc(S(N)(=O)=O)cc5)nc(N5CC[C@@H](NC(=O)N[C@@H]6CCNC6)C5)nc43)[C@H](O)[C@@H]2O)n1 [Example 108, 4-(2-{9-[(2R,3R,4S,5R)-5-(2-Ethyl-2H-tetrazol-5-yl)-3,4-dihydroxy-tetrahydro-furan-2-yl]-2-[(R)-3-((R)-3-pyrrolidin-3-ylureido)-pyrrolidin-1-yl]-9H-purin-6-ylamino}-ethyl)-benzenesulfonamide trifluoroacetate]
